pIC50: −log10 of the molar value.

For this test, the target named is T1, interaction between biotinylated human S100A9 and human RAGE-Fc (Homo sapiens, UniProt P06702).
T1 construct: made in house; host or cells: E. coli
T1 sequence (P06702 1-114): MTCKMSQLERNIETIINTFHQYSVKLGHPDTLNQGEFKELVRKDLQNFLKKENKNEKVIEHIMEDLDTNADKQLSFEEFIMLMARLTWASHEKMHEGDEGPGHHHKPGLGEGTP
Put plainly: AlphaScreen inhibition assay, biot-hS100A9:hRAGE-Fc. In kind it is binding. To be noted: biot-hS100A9 pre-incubated with compound 1 h, assay buffer with CaCl2 and ZnCl2. Summed up: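 Biotinylated human S100A9, preincubated with compound, binds human RAGE-Fc on protein A Acceptor beads in HBS-P with CaCl2 and ZnCl2; streptavidin Donor beads added, AlphaScreen signal read. Protein levels set by cross-titration; beads 20 μg/mL final. Percent inhibition versus DMSO control; IC50 from varied compound concentrations.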
(Alpha assays give light when donor and acceptor beads are brought close together.)
As usually defined, the pIC50 is −log10 of the IC50, conventionally taken in molar units. As to `COCCN1CCN(Cc2c(C(=O)O)nc3sc4c(n23)CCC(C(C)(C)C)C4)CC1` (stereo not shown) [Example 272, 10-tert-Butyl-3-{[4-(2-methoxyethyl)piperazin-1-yl]methyl}-7-thia-2,5-diazatricyclo[6.4.0.0^2,6]dodeca-1(8),3,5-triene-4-carboxylic acid], the pIC50 was 5.75.

Consider `CS(=O)(=O)NC(=O)c1cn2c(n1)sc1cc(OC(F)(F)F)ccc12` [Example 20, N-Methanesulfonyl-10-(trifluoromethoxy)-7-thia-2,5-diazatricyclo[6.4.0.0^2,6]dodeca-1(8),3,5,9,11-pentaene-4-carboxamide], for which the pIC50 is 5.66.

Consider `CC1(C)Cc2c(sc3nc(C(=O)O)cn23)C1(C)C` [Example 36, 4,4,5,5-Tetramethyl-7-thia-1,9-diazatricyclo[6.3.0.0^2,6]undeca-2(6),8,10-triene-10-carboxylic acid], for which the pIC50 is 6.44.

On to `CC1(C(=O)O)CN2C(=N1)Sc1c2ccc(F)c1Cl` (stereo not shown) [Example 250, 9-Chloro-10-fluoro-4-methyl-7-thia-2,5-diazatricyclo[6.4.0.0^2,6]dodeca-1(8),5,9,11-tetraene-4-carboxylic acid], for which the pIC50 was 6.17.

With `O=C(NS(=O)(=O)CCCO)c1cn2c(n1)sc1c(Cl)c(Cl)ccc12` [Example 28, 9,10-Dichloro-N-(3-hydroxypropanesulfonyl)-7-thia-2,5-diazatricyclo[6.4.0.0^2,6]dodeca-1(8),3,5,9,11-pentaene-4-carboxamide], the pIC50 is 6.77.

For the compound `CC1(C)Cc2c(sc3nc(C(=O)O)c(CN4CCOCC4)n23)C(C)(C)C1` [Example 246, 9,9,11,11-Tetramethyl-3-(morpholin-4-ylmethyl)-7-thia-2,5-diazatricyclo[6.4.0.0^2,6]dodeca-1(8),3,5-triene-4-carboxylic acid], the pIC50 is 6.22.

Turning to `O=C(O)C(O)c1cn2c(n1)sc1c(Cl)c(Cl)ccc12` (stereo not shown) [Example 188, 2-{9,10-Dichloro-7-thia-2,5-diazatricyclo[6.4.0.0^2,6]dodeca-1(8),3,5,9,11-pentaen-4-yl}-2-hydroxyacetic acid], the pIC50 was 5.66.

On to `Cc1c(C(=O)O)nc2sc3c(n12)CCC(C(C)(C)C)C3` (stereo not shown) [Example 195, 10-tert-Butyl-3-methyl-7-thia-2,5-diazatricyclo[6.4.0.0^2,6]dodeca-1(8),3,5-triene-4-carboxylic acid], for which the pIC50 was 6.62.

As to `CN(C)c1c(C(=O)O)nc2sc3c(n12)CC(C)(C)CC3(C)C` [Example 280, 3-(Dimethylamino)-9,9,11,11-tetramethyl-7-thia-2,5-diazatricyclo[6.4.0.0^2,6]dodeca-1(8),3,5-triene-4-carboxylic acid], the pIC50 is 6.38.

As to `O=C(NS(=O)(=O)CC(F)(F)F)c1cn2c(n1)sc1c(Cl)c(Cl)ccc12` [Example 25, 9,10-Dichloro-N-(2,2,2-trifluoroethanesulfonyl)-7-thia-2,5-diazatricyclo[6.4.0.0^2,6]dodeca-1(8),3,5,9,11-pentaene-4-carboxamide], the pIC50 is 6.74.

Consider `O=C(O)c1cn2c(n1)sc1c(F)c(F)ccc12` [Example 209, 9,10-Difluoro-7-thia-2,5-diazatricyclo[6.4.0.0^2,6]dodeca-1(8),3,5,9,11-pentaene-4-carboxylic acid], for which the pIC50 is 5.99.

In the case of `CC1(C)Cc2c(sc3nc(C(=O)O)c(C4CN(C(=O)OC(C)(C)C)C4)n23)C(C)(C)C1` [Example 225, 3-{1-[(tert-Butoxy)carbonyl]azetidin-3-yl}-9,9,11,11-tetramethyl-7-thia-2,5-diazatricyclo[6.4.0.0^2,6]dodeca-1(8),3,5-triene-4-carboxylic acid], the pIC50 is 6.51.

In the case of `CN(C)Cc1c(C(=O)O)nc2sc3c(Cl)c(Cl)ccc3n12` [Example 203, 9,10-Dichloro-3-[(dimethylamino)methyl]-7-thia-2,5-diazatricyclo[6.4.0.0^2,6]dodeca-1(8),3,5,9,11-pentaene-4-carboxylic acid], the negative-log IC50 (pIC50) was 6.11.

The values above are taken from patent publication US10385069B2, “Imidazo[2,1-B]thiazole and 5,6-dihydroimidazo[2,1-B]thiazole derivatives useful as S100-inhibitors” (Active Biotech AB, priority 2015, dated 2019).
